Assay results as given in US20200288710A1, “SUBSTITUTED SULPHONAMIDES FOR CONTROLLING ANIMAL PESTS” (BAYER CROPSCIENCE AKTIENGESELLSCHAFT, priority 2016, published 2020).

How the values were obtained:
Meloidogyne incognita = Meloidogyne incognita test; assay type: in vivo; conditions: 336 h, lettuce, after 14 days, read-out: nematicidal efficacy (formation of galls)
Experimental: Meloidogyne incognita Test Solvent: 125.0 parts by weight of acetone To produce a suitable active compound preparation, 1 part by weight of active compound is mixed with the stated amount of solvent and the concentrate is diluted with water to the desired concentration. Vessels are filled with sand, active compound solution, an egg/larvae suspension of the southern rootknot nematode (Meloidogyne incognita) and lettuce seeds. The lettuce seeds germinate and the plants develop. The galls develop on the roots. After 14 days, the nematicidal efficacy in % is determined by the formation of galls. 100% means that no galls were found; 0% means that the number of galls on the treated plants corresponds to the untreated control.

Myzus persicae = Myzus persicae oral test; assay type: in vivo; conditions: 120 h, 20 ppm, oral uptake, after 5 days, read-out: efficacy
Outline: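 Aphids of mixed ages imbibe, through parafilm, compound solution (acetone stock, water-diluted) combined with sugar-supplemented IPL41 medium to 200 μl. Efficacy read at day 5 as percent killed, 0% meaning no deaths.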

| SMILES | pest or weed control at 20 ppm (Meloidogyne incognita) [%] | pest or weed control at 20 ppm (Myzus persicae) [%] |
| --- | --- | --- |
| COc1ccc(Cl)c(S(=O)(=O)NC(=O)c2nc(-c3ccccc3Cl)[nH]c2C)c1 [Example 239] | 90 | 100 |
| COc1ccc(Cl)c(S(=O)(=O)NC(=O)c2nc(-c3ccc(Cl)cc3)[nH]c2C)c1 [Example 618] | 100 | 100 |
| Cc1ccccc1S(=O)(=O)NC(=O)c1cn(C)c(-c2cccc(C(C)C)c2)n1 [Example 331] | 90 | 100 |
| CCc1ccccc1-c1nc(C(=O)NS(=O)(=O)c2ccccc2Cl)cn1C [Example 496] | 100 | 90 |
| O=C(NS(=O)(=O)C1CC1)c1cc(-c2ncccc2Cl)n(-c2ccccc2Cl)n1 [Example 456] | 100 | 100 |
| Cn1cc(C(=O)NS(=O)(=O)c2ccccc2Cl)nc1-c1cc(Cl)ccc1Cl [Example 511] | 100 | 100 |
| CC(C)c1ccccc1-c1nc(C(=O)NS(=O)(=O)c2ccccc2Cl)cn1C [Example 209] | 90 | 90 |
| Cn1cc(C(=O)NS(=O)(=O)c2ccc(Cl)c(Cl)c2)nc1-c1c(F)cccc1F [Example 187] | 90 | 100 |
| Cn1cc(C(=O)NS(=O)(=O)Nc2ccc(Cl)cc2)nc1-c1c(F)cccc1F [Example 506] | 90 |  |
| Cc1[nH]c(-c2ccc(F)cc2F)nc1C(=O)NS(=O)(=O)C(C)C [Example 622] | 90 |  |
| Cc1ccc(C(C)C)cc1S(=O)(=O)NC(=O)c1cn(C)c(-c2c(F)cccc2F)n1 [Example 396] | 90 |  |
| Cn1cc(C(=O)NS(=O)(=O)c2ccccc2Cl)nc1-c1ccc(F)c(F)c1 [Example 544] | 100 |  |
| CC(C)N(C)S(=O)(=O)NC(=O)c1cn(C)c(-c2c(F)cccc2F)n1 [Example 551] | 90 |  |
| COc1cccc(OC(C)C)c1S(=O)(=O)NC(=O)c1cn(C)c(-c2c(F)cccc2F)n1 [Example 380] | 100 |  |
| CCc1[nH]c(-c2ccccc2Cl)nc1C(=O)NS(=O)(=O)c1ccccc1Cl [Example 243] | 90 |  |
| CC(C)Nc1ccccc1S(=O)(=O)NC(=O)c1cn(C)c(-c2ccccc2Cl)n1 [Example 253] | 90 |  |
| Cn1cc(C(=O)NS(=O)(=O)c2cc(Cl)c(Cl)s2)nc1-c1c(F)cccc1F [Example 355] | 90 |  |
| COc1ccccc1S(=O)(=O)NC(=O)c1cn(C)c(-c2ccccc2Oc2ccccc2)n1 [Example 486] | 90 |  |
| COc1ccc(S(=O)(=O)NC(=O)c2cn(C)c(-c3c(F)cccc3F)n2)cn1 [Example 344] | 90 |  |
| Cc1ccccc1S(=O)(=O)NC(=O)c1nc(-c2c(F)cccc2F)nn1C [Example 410] | 90 |  |
| COc1ccccc1S(=O)(=O)NC(=O)c1cn(C)c(-c2ccc(Cl)c(Cl)c2)n1 [Example 537] | 100 |  |
| Cn1cc(C(=O)NS(=O)(=O)c2ccccc2Cl)nc1-c1ccccc1Oc1ccccc1 [Example 484] | 100 |  |
| Cc1ccccc1NS(=O)(=O)NC(=O)c1cn(C)c(-c2c(F)cccc2F)n1 [Example 504] | 90 |  |
| Cc1[nH]c(-c2ccc(Cl)cc2)nc1C(=O)NS(=O)(=O)c1ccccc1Cl [Example 232] | 90 |  |
| COc1ccccc1S(=O)(=O)NC(=O)c1cn(C)c(-c2ccccc2-c2ccccc2)n1 [Example 534] | 90 |  |
| COc1ccccc1S(=O)(=O)NC(=O)c1cn(C)c(-c2cccc3c2OC(F)(F)O3)n1 [Example 543] | 90 |  |
| Cc1ccccc1S(=O)(=O)NC(=O)c1cn(C)c(-c2ccccc2Oc2ccccc2)n1 [Example 485] | 90 |  |
| COc1ccccc1S(=O)(=O)NC(=O)c1nc(-c2c(F)cccc2F)nn1C [Example 409] | 90 |  |
